# Results from patent publication US20230322767A1, “ARYL SUBSTITUTED PYRROLO-PYRIDINONES AND THERAPEUTIC USES THEREOF” (Bayer Aktiengesellschaft, priority 2020, published 2023).
# Legend:
# [1] = target: CSNK1A1 (Homo sapiens (Human), UniProt P48729); experiment: CSNK1A1 Assay 2 (ADP-Glo, 1 μM ATP); type: biochemical; details: median, read-out: CSNK1A1 Assay 2 IC50 [mol/l] (median)
# Experimental: CSNK1A1-inhibitory activity of compounds of the present invention in presence of 1 μM adenosine-tri-phosphate (ATP) was quantified employing the CSNK1A1 assay as described in the following paragraphs. In essence, the enzyme activity is measured by quantification of the adenosine-di-phosphate (ADP), which is generated as a co-product of the enzyme reaction, via the “ADP-Glo™ Kinase Assay” kit from the company Promega. This detection system works as follows: In a first step the ATP not consumed in the kinase reaction is quantitatively converted to cAMP employing an adenylate cyclase (“ADP-Glo-reagent”), then the adenylate cyclase is stopped and the ADP generated in the kinase reaction converted to ATP which generates in a luciferase-based reaction a glow-luminescence signal (“Kinase Detection Reagent”).
# As substrate for the kinase reaction the biotinylated peptide biotin-Ahx-KRRRAL-pS-VASLPGL (C-terminus in amide form) was used which can be purchased e.g. from the company Biosyntan (Berlin-Buch, Germany).
# For the assay 50 nl of a 100 fold concentrated solution of the test compound in DMSO was pipetted into a white 1536-well microtiter plate (Greiner Bio-One, Frickenhausen, Germany), 2 μL of a solution of CSNK1A1 in aqueous assay buffer [50 mM HEPES pH 7.5, 10% (v/v) glycerol, 10 mM MgCl2, 50 mM NaCl, 1 mM dithiothreitol, 0.01% (w/v) bovine serum albumin, 0.01% (v/v) Triton X-100] were added and the mixture was incubated for 15 min at 22° C. to allow pre-binding of the test compounds to the enzyme before the start of the kinase reaction. […] The concentration of CSNK1A1 was adjusted depending of the activity of the enzyme lot and was chosen appropriate to have the assay in the linear range, a typical concentrations are about 0.0375 ng/μL. The reaction was stopped by the addition of 2.5 μL of “ADP-Glo-reagent” (1:1.5 fold diluted with water) and the resulting mixture was incubated at 22° C. for 1 h to convert the ATP not consumed in the kinase reaction completely […]. Subsequently 2.5 μL of the “kinase detection reagent” (1.2 fold more concentrated than recommended by the producer) were added, the resulting mixture was incubated at 22° C. for 1 h and then the luminescence measured with a suitable measurement instrument (e.g. Viewlux™ from Perkin-Elmer). The amount of emitted light was taken as a measure for the amount of ADP generated and thereby for the activity of the CSNK1A1.
# [2] = target: CSNK1D (Homo sapiens (Human), UniProt P48730); experiment: CSNK1D Assay (ADP-Glo, 1 μM ATP); type: biochemical; details: median, read-out: CSNK1D IC50 [mol/l] (median)
# Experimental: CSNK1D-inhibitory activity of compounds of the present invention in presence of 1 μM adenosine-tri-phosphate (ATP) was quantified employing the CSNK1 D assay as described in the following paragraphs. In essence, the enzyme activity is measured by quantification of the adenosine-di-phosphate (ADP), which is generated as a co-product of the enzyme reaction, via the “ADP-Glo™ Kinase Assay” kit from the company Promega. This detection system works as follows: In a first step the ATP not consumed in the kinase reaction is quantitatively converted to cAMP employing an adenylate cyclase (“ADP-Glo-reagent”), then the adenylate cyclase is stopped and the ADP generated in the kinase reaction converted to ATP which generates in a luciferase-based reaction a glow-luminescence signal (“Kinase Detection Reagent”).
# As substrate for the kinase reaction the biotinylated peptide Btn-Ahx-[…] (C-terminus in amide form) was used which can be purchased e.g. from the company Biosyntan (Berlin-Buch, Germany).
# For the assay 50 nl of a 100 fold concentrated solution of the test compound in DMSO was pipetted into a white 1536-well microtiter plate (Greiner Bio-One, Frickenhausen, Germany), 2 μL of a solution of CSNK1D in aqueous assay buffer [50 mM HEPES pH 7.5, 10% (v/v) glycerol, 10 mM MgCl2, 50 mM NaCl, 1 mM dithiothreitol, 0.01% (w/v) bovine serum albumin, 0.01% (v/v) Triton X-100] were added and the mixture was incubated for 15 min at 22° C. to allow pre-binding of the test compounds to the enzyme before the start of the kinase reaction. […] The concentration of CSNK1D was adjusted depending of the activity of the enzyme lot and was chosen appropriate to have the assay in the linear range, a typical concentration is about 0.5 ng/μL. The reaction was stopped by the addition of 2.5 μL of “ADP-Glo-reagent” (1:1.5 fold diluted with water) and the resulting mixture was incubated at 22° C. for 1 h to convert the ATP not consumed in the kinase reaction completely […]. Subsequently 2.5 μL of the “kinase detection reagent” (1.2 fold more concentrated than recommended by the producer) were added, the resulting mixture was incubated at 22° C. for 1 h and then the luminescence measured with a suitable measurement instrument (e.g. Viewlux™ from Perkin-Elmer). The amount of emitted light was taken as a measure for the amount of ADP generated and thereby for the activity of the CSNK1D.
# Chain of CSNK1A1 (P48729 whole entry): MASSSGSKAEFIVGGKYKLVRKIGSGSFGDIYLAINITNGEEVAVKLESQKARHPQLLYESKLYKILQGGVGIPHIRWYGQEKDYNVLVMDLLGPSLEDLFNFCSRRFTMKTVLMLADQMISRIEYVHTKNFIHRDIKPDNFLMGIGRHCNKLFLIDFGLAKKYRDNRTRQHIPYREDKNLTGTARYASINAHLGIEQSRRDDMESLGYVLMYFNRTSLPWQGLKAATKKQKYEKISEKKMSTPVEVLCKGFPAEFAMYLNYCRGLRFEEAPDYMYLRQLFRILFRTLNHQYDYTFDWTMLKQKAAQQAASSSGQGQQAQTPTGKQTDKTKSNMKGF
# Chain of CSNK1D (P48730 whole entry): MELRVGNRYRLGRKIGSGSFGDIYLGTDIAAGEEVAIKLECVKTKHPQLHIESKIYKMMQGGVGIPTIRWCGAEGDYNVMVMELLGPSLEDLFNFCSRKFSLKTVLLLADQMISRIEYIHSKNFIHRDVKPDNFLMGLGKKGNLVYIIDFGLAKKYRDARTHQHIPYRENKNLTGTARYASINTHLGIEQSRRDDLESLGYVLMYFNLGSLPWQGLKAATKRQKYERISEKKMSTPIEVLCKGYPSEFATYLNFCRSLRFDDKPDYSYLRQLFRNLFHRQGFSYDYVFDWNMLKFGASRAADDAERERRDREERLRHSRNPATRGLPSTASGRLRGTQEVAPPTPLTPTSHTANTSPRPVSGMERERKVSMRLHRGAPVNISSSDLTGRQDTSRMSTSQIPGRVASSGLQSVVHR
SMILES,IC50 [1],IC50 [2]
"Cn1cc(CC2CC2)c2[nH]c(-c3ccnc(NC(=O)C(CC(F)F)c4ccc(F)cc4)c3)c(-c3ccccc3)c2c1=O (racemic) [Example 60, N-{4-[7-(cyclopropylmethyl)-5-methyl-4-oxo-3-phenyl-4,5-dihydro-1H-pyrrolo[3,2-c]pyridin-2-yl]pyridin-2-yl}-4,4-difluoro-2-(4-fluorophenyl)butanamide]",15 nM,9.5 nM
"CN1CC(CC2CC2)c2[nH]c(-c3ccnc(NC(=O)Cc4ccc(F)cc4)c3)c(-c3ccc(F)cc3)c2C1=O (racemic) [Example 61, N-{4-[7-(cyclopropylmethyl)-3-(4-fluorophenyl)-5-methyl-4-oxo-4,5,6,7-tetrahydro-1H-pyrrolo[3,2-c]pyridin-2-yl]pyridin-2-yl}-2-(4-fluorophenyl)acetamide]",2 nM,1.8 nM
"CC(C(=O)Nc1cc(-c2[nH]c3c(CC4CC4)cn(C)c(=O)c3c2-c2ccc(F)cc2)ccn1)c1ccc(F)cc1 (racemic) [Example 63, N-{4-[7-(cyclopropylmethyl)-3-(4-fluorophenyl)-5-methyl-4-oxo-4,5-dihydro-1H-pyrrolo[3,2-c]pyridin-2-yl]pyridin-2-yl}-2-(4-fluorophenyl)propanamide]",12 nM,8 nM
"CN1CCc2[nH]c(-c3ccnc(NC(=O)C(CC(F)F)c4ccc(F)cc4)c3)c(-c3ccccc3)c2C1=O (single isomer, unassigned) [Example 3, 4,4-difluoro-2-(4-fluorophenyl)-N-[4-(5-methyl-4-oxo-3-phenyl-4,5,6,7-tetrahydro-1H-pyrrolo[3,2-c]pyridin-2-yl)pyridin-2-yl]butanamide]",4.7 nM,5.9 nM
"CN1CCc2[nH]c(-c3ccnc(NC(=O)C(CC(F)F)c4ccc(F)cc4)c3)c(-c3ccccc3)c2C1=O (single isomer, unassigned) [Example 4, 4,4-difluoro-2-(4-fluorophenyl)-N-[4-(5-methyl-4-oxo-3-phenyl-4,5,6,7-tetrahydro-1H-pyrrolo[3,2-c]pyridin-2-yl)pyridin-2-yl]butanamide]",1.1 nM,2.3 nM
"CN1CCc2[nH]c(-c3ccnc(NC(=O)C(CC(F)F)c4ccc(F)cc4)c3)c(-c3cccnc3)c2C1=O (single isomer, unassigned) [Example 10, 4,4-difluoro-2-(4-fluorophenyl)-N-{4-[5-methyl-4-oxo-3-(pyridin-3-yl)-4,5,6,7-tetrahydro-1H-pyrrolo[3,2-c]pyridin-2-yl]pyridin-2-yl}butanamide]",110 nM,64 nM
"CN1CCc2[nH]c(-c3ccnc(NC(=O)C(CC(F)F)c4ccc(F)cc4)c3)c(-c3cccnc3)c2C1=O (single isomer, unassigned) [Example 11, 4,4-difluoro-2-(4-fluorophenyl)-N-{4-[5-methyl-4-oxo-3-(pyridin-3-yl)-4,5,6,7-tetrahydro-1H-pyrrolo[3,2-c]pyridin-2-yl]pyridin-2-yl}butanamide]",4.3 nM,4.7 nM
"Cn1cc(CC(F)(F)F)c2[nH]c(-c3ccnc(NC(=O)C(CC(F)F)c4ccc(F)cc4)c3)c(-c3ccc(F)cc3)c2c1=O (single isomer, unassigned) [Example 27, 4,4-difluoro-2-(4-fluorophenyl)-N-{4-[3-(4-fluorophenyl)-5-methyl-4-oxo-7-(2,2,2-trifluoroethyl)-4,5-dihydro-1H-pyrrolo[3,2-c]pyridin-2-yl]pyridin-2-yl}butanamide]",12 nM,5.8 nM
"Cn1cc(CC(F)(F)F)c2[nH]c(-c3ccnc(NC(=O)C(CC(F)F)c4ccc(F)cc4)c3)c(-c3ccc(F)cc3)c2c1=O (single isomer, unassigned) [Example 28, 4,4-difluoro-2-(4-fluorophenyl)-N-{4-[3-(4-fluorophenyl)-5-methyl-4-oxo-7-(2,2,2-trifluoroethyl)-4,5-dihydro-1H-pyrrolo[3,2-c]pyridin-2-yl]pyridin-2-yl}butanamide]",6.1 nM,5 nM
"CC1(C)CNC(=O)c2c1[nH]c(-c1ccnc(NC(=O)C(CC(F)F)c3ccc(F)cc3)c1)c2-c1ccccc1 (single isomer, unassigned) [Example 44, N-[4-(7,7-dimethyl-4-oxo-3-phenyl-4,5,6,7-tetrahydro-1H-pyrrolo[3,2-c]pyridin-2-yl)pyridin-2-yl]-4,4-difluoro-2-(4-fluorophenyl)butanamide]",11 nM,12 nM
"CC1(C)CNC(=O)c2c1[nH]c(-c1ccnc(NC(=O)C(CC(F)F)c3ccc(F)cc3)c1)c2-c1ccccc1 (single isomer, unassigned) [Example 45, N-[4-(7,7-dimethyl-4-oxo-3-phenyl-4,5,6,7-tetrahydro-1H-pyrrolo[3,2-c]pyridin-2-yl)pyridin-2-yl]-4,4-difluoro-2-(4-fluorophenyl)butanamide]",2 nM,2.7 nM
"CC(C(=O)Nc1cc(-c2[nH]c3c(c2-c2ccccc2)C(=O)NCC3(C)C)ccn1)c1ccc(F)cc1 (single isomer, unassigned) [Example 47, N-[4-(7,7-dimethyl-4-oxo-3-phenyl-4,5,6,7-tetrahydro-1H-pyrrolo[3,2-c]pyridin-2-yl)pyridin-2-yl]-2-(4-fluorophenyl)propanamide]",13 nM,9.6 nM
"CC(C(=O)Nc1cc(-c2[nH]c3c(c2-c2ccccc2)C(=O)NCC3(C)C)ccn1)c1ccc(F)cc1 (single isomer, unassigned) [Example 48, N-[4-(7,7-dimethyl-4-oxo-3-phenyl-4,5,6,7-tetrahydro-1H-pyrrolo[3,2-c]pyridin-2-yl)pyridin-2-yl]-2-(4-fluorophenyl)propanamide]",1.8 nM,2.9 nM
"CC(C(=O)Nc1cc(-c2[nH]c3c(CC(F)(F)F)cn(C)c(=O)c3c2-c2ccccc2)ccn1)c1ccc(F)cc1 (single isomer, unassigned; (+)) [Example 15, (+)-2-(4-fluorophenyl)-N-{4-[5-methyl-4-oxo-3-phenyl-7-(2,2,2-trifluoroethyl)-4,5-dihydro-1H-pyrrolo[3,2-c]pyridin-2-yl]pyridin-2-yl}propanamide]",2.3 nM,2.8 nM
"Cn1cc(CC(F)(F)F)c2[nH]c(-c3ccnc(NC(=O)C(CC(F)F)c4ccc(F)cc4)c3)c(-c3ccccc3)c2c1=O (single isomer, unassigned; (+)) [Example 20, (+)-4,4-difluoro-2-(4-fluorophenyl)-N-{4-[5-methyl-4-oxo-3-phenyl-7-(2,2,2-trifluoroethyl)-4,5-dihydro-1H-pyrrolo[3,2-c]pyridin-2-yl]pyridin-2-yl}butanamide]",14 nM,12 nM
